Results taken from patent US20080214456A1, “Lkktet and/or Lkktnt Peptide Compositions and Methods” (REGENERX BIOPHARMACEUTICALS, INC., priority 2005, published 2008).

Legend:
[1] = test system: Human corneal epithelial cells; test: annexin-based cell death (apoptosis) assay in BAK-exposed corneal epithelial cells
Method: (§1) Human corneal epithelial cells at approximately 80% confluence were treated with 0%, 0.001%, 0.01%, or 0.1% BAK for 15 minutes. After 3 and 24 hours of recovery in culture medium, cell proliferation was measured using a calorimetric BrdU incorporation assay. Apoptosis was measured using a calorimetric annexin-based cell death assay. […] To further assess the ability of Tb4 to prevent apoptosis, corneal epithelial cells were treated with 0.01% BAK±Tβ4 over a 5 day time course.

[2] = test system: Human corneal epithelial cells; test: BrdU incorporation cell proliferation assay in BAK-exposed corneal epithelial cells; format: cell-based
Method: as §1

[3] = 1 mcg/ml Tβ4, BAK-treated cells, 3 and 24 hour time points
[4] = 0.001%, 0.01% or 0.1% BAK for 15 minutes, 3 and 24 hours recovery

Substance	BAK-initiated epithelial cell apoptosis ([1]; 0.01% BAK ± Tβ4, longer times in culture (2 to 5 days))	apoptosis of BAK-treated cells in presence of Tβ4 [1, 3]	apoptosis compared to cells cultured in medium alone ([1]; 5 days in culture, no BAK comparison (medium alone))	cell proliferation of BAK-treated cells in presence of Tβ4 [2, 3]	apoptosis compared to control [1, 4]	corneal epithelial cell proliferation compared to control [2, 4]
Thymosin beta 4 (SDKPDMAEIEKFDKSKLKKTETQEKNPLPSKETIEQEKQAGES; Thymosin beta-4; UniProt P62328 2-44, looked up) [Tβ4]	significantly inhibited	not inhibited	decreased apoptosis	not promoted	–	–
benzalkonium chloride [BAK, reference compound]	–	–	–	–	increased	inhibited
